How the values were obtained:
[1] = system: Daoy cells; assay: Expression of differentiation and proliferation markers (real-time PCR, Western blot); type: cell-based, human
Method: Total RNA was extracted from the cell lines using the Trizol reagent (Invitrogen). Synthesis of cDNA from total RNA (4 μg) was performed using a Super Script II First Strand Kit (Invitrogen). Real-time quantitative PCR was performed using standard protocols with an Applied Biosystems ABI PRISM 7900HT Sequence Detection system. To calculate the relative gene expression of the miR-199b-5p precursor, the relative amounts of each pre-miRNA were normalized to U6 miRNA; the other genes were normalized using the β-actin gene. Real-time PCR primers for each gene were designed using Primer Express software version 2.0 (Applied Biosystems). The primer sequences are available upon request.
Thirty μg cytosolic or nuclear lysates were loaded onto 12% polyacrilamide gels, and blotted onto polyvinylidene difluoride membranes (PVDF; BioRad, Milan, Italy). The membranes were then incubated with anti-HES1 (kind gift of Dr. Tetsuo Sudo TORAY Industries, Tebiro Kamakura, Japan), a polyclonal rabbit antibody (1:500), an anti-GSK3-β (B&D Bioscience) monoclonal antibody (1:2500), an anti-c-Myc polyclonal rabbit antibody (1:200) (Santa Cruz Biotechnology, Santa Cruz, Calif., USA), an anti-GABRA6 antibody (Santa Cruz Biotechnology, Santa Cruz, USA) (1:200), an anti-MATH3 antibody (Santa Cruz Biotechnology, Santa Cruz, USA) (1:200) and an anti-cyclin D1 (1:200) polyclonal rabbit antibody (Cell Signaling). An anti-β-actin antibody (1:1.000) (Sigma) was used as the control for equal loading of cytosolic lysates and a polyclonal anti-β-laminin antibody (1:50) (Santa Cruz Biotechnology, Santa Cruz, Calif., USA) for equal loading of nuclear lysates.

[2] = system: Daoy cells; assay: FACS cell-cycle analysis (propidium iodine); type: cell-based, human
Method: The flow cytometry analysis of S-phase fractions and cell-cycle kinetics were carried out using a FACSCalibur (Becton Dickinson, San Jose, Calif.) using CELL Quest version 3.3 software. The CD133 studies were carried out using the same instrument, with antibodies from Miltenyi Biotec (Auburn, Calif.), according to the manufacturer instructions. In brief, the cells were blocked in Fc receptor blocking reagent and incubated with an anti-CD133/1 (AC133)-phycoerythrin antibody (Miltenyi Biotec), for 10 min in the dark at 4° C. The cells were then washed and resuspended in PBS. Cells expressing higher levels of CD133 than the immunoglobulin G (IgG) controls were considered positive. For analyses of the side populations, cells […] were incubated with Hoechst 33342 (5 μmol/L; Sigma) for 90 min at 37° C. in EMEM containing 2% FBS. To ensure the correct identification of the side population cells, the cells were incubated as above with the addition of 50 μM verapamil (Sigma).

[3] = system: ONS76 cells; assay: Proliferation assay MTS, ONS76; type: cell-based; conditions: transient transfection vs mock-transfected cells
Method: Cell proliferation was determined using the CellTiter96 AQueous Non-Radioactive Cell Proliferation Assay Kit (Promega Madison, Wis.). The cells were seeded into 96-well plates at a density of 1×10^3 cells/well in EMEM without or with FBS. After 0, 24, 48 and 72 h, MTS ([3-(4,5-dimethylthiazol-2-yl)-5-(3-carboxymethoxyphenyl)-2-(4-sulfophenyl)-2H-tetrazolium]) and PMS (phenazine methosulfate) were added to each well and after 4 h the absorbance of each well was measured at 490 nm (OD490) using Multilabel counter Victor^3 (Perkin Elmer). Each condition was performed with five wells and each experiment was repeated twice.

[4] = Western blot, stable 199bSC1 clone
[5] = stable 199bSC1 clone vs empty vector clone

## miR-199b-5p: mature microRNA CCCAGUGUUUAGACUAUCUGUUC (SEQ ID NO:11); over-expressed from pre-miR-199b construct, e.g. stable Daoy clones 199bSC1, 199bMC1 (listed as RNA, chemistry not fully specified)
[1]; [4]
  GABRA6 protein: up-regulated
  MATH3 protein: up-regulated
  c-Myc protein: decreased
  cyclin D1 protein: decreased
[1]; real-time PCR, both stable clones
  expression of pro-neural bHLH (MASH1, MATH3, NGN2): increases in expression
[1]; real-time PCR, stable 199bSC1 and 199bMC1 clones
  MAP2 mRNA expression: up-regulated
[1]; real-time PCR, stable 199bSC1 clone
  GFAP levels: increased
[1]; real-time PCR, stable clones
  GABRA6 mRNA expression: significantly over-expressed
  c-Myc expression: decreased
  cyclin D1 expression: decreased
[2]; stable 199bMC1 clone
  changes in cell cycle: did not show significant changes
[2]; [5]
  decrease in S-phase fractions: 31%
  increase in cells in G0-G1: 15%
[3]
  proliferation: decreased proliferation
